# Source: patent publication US12642838B2, “Method of modulating sensitivity to tyrosine kinase inhibitor” (SINGAPORE HEALTH SERVICES PTE LTD, priority 2020, dated 2026)
# Legend:
# NCC-HN1 cells = assay: Cell proliferation assay (CellTitre-Glo), TKI and EV co-treatment, NCC-HN1; format: cell-based, human
# Method: Extracellular vesicle (EV) collection and isolation were carried out as previously described*. Briefly, cells were grown in T-175 tissue culture flasks with conditioning medium (NCM). After 72 hours incubation, the NCM was collected and spun down at 1,200 rpm for 10 minutes to remove cell debris. The supernatant was then filtered through a 0.22 um filter (PES) and the filtrate was loaded into Amicon® Ultra-15 Centrifugal Filter Unit (Merck Millipore, Kenilworth, NJ). The medium was concentrated and subjected to a final wash with 1×PBS before reconstituting to 1/60 of the original volume. To reduce extracellular vesicle batch variation, every five extracellular vesicle batches were pooled into a single batch for analysis and treatment. *Reference: Rodrigues-Junior, D. M. et al. Circulating extracellular vesicle-associated TGFβ3 modulates response to cytotoxic therapy in head and neck squamous cell carcinoma. Carcinogenesis 1-13 (2019). doi:10.1093/carcin/bgz148
# Cells were seeded in 100 μl complete growth medium at a density of 1,000-3,000 cells/well in 96-well tissue culture plates. Cells were washed with 1×PBS to remove remaining medium residue prior treatment. […] Plates were incubated for 72 hours at 37° C. after which cell viability was assessed using CellTitre-Glo® Luminescent Assay according to the manufacturer's protocol (Promega, Madison, WI).
# [1] = Mouse body weight after afatinib and EV co-treatment; format: in vivo; conditions: daily oral afatinib with 72-hourly peri-tumoural EV injection
# Source text: Arrow indicates commencement of daily oral afatinib administration with 72-hourly peri-tumoural extracellular vesicle (EV) injection. This confirms that the therapy delivered to the mice in FIG. 25 had minimal side effects/toxicity during the course of the experiment.
# [2] = test system: NCC-HN1, NCC-HN120M and NCC-HN182M cells; assay: Cell proliferation assay and IC50 determination, TKI and EV co-treatment, HNSCC cell line panel; format: cell-based, human
# Method: To test the response of head and neck squamous cell carcinomas (HNSCC) cell lines to tyrosine kinase inhibitors (TKIs) in the presence of EGFR exosomal isoform D, three primary cell lines, namely NCC-HN1, NCC-HN120M and NCC-HN182M, were used. […] NCC-HN1, NCC-HN120M and NCC-HN182M cells were treated with eight tyrosine kinase inhibitors, each individually, in the presence of exosome (EV) derived from NCC-HN19 and NCC-HN137P cells.
# Cells were seeded in 100 μl complete growth medium at a density of 1,000-3,000 cells/well in 96-well tissue culture plates. […] Plates were incubated for 72 hours at 37° C. after which cell viability was assessed using CellTitre-Glo® Luminescent Assay according to the manufacturer's protocol (Promega, Madison, WI).
smiles,measurement,setting,value
O=C1NC(=NS(=O)(=O)c2cccc3ccccc23)S/C1=C\c1ccc(Br)cc1 [PitStop2],effect on the sensitising effect of isoform D containing EVs,NCC-HN1 cells; 1 μM PS2 with 293T pBob-IsoD EV,reduces the sensitising effect of isoform D containing EVs
CN(C)C/C=C/C(=O)Nc1cc2c(Nc3ccc(F)c(Cl)c3)ncnc2cc1O[C@H]1CCOC1 [afatinib],mouse body weight,[1],no changes in mouse body weight
COc1cc2ncnc(Nc3ccc(F)c(Cl)c3)c2cc1NC(=O)/C=C/CN1CCCCC1 [dacomitinib],sensitivity of HNSCC cells to the TKI on co-treatment with exosomes containing overexpressed EGFR isoform D,"[2]; EV from 293T, FIG. 11H (NCC-HN1 and NCC-HN120M)",sensitized
same,sensitivity of TKI-resistant cells to the TKI on application of EVs from sensitive cells,"[2]; EV from HN19 and HN137P applied to HN1, HN120M, HN182M",sensitises these resistant cells
COc1cc2ncnc(Nc3ccc(F)c(Cl)c3)c2cc1OCCCN1CCOCC1 [gefitinib],response of cells to TKI without exosome,NCC-HN1 cells; no exosome treatment,normally resistant
